Among the data in patent publication US20120251551A1, “Substituted (Heteroarylmethyl)thiohydantoins” (BAYER PHARMA AKTIENGESELLSCHAFT, priority 2009, published 2012) are IC50 and EC50 values, retold here.

As usually defined, the IC50 is the point on the concentration scale where inhibition reaches its midpoint. For orientation: EC50 means the midpoint of the concentration-response curve. A low value points to a more potent agent.

Experiment [1] concerns the target T1, human androgen receptor E709Y mutant (Homo sapiens, UniProt P10275, E710Y).
T1 construct: expressed in transfected cells; host or cells: PC-3 cells, transient transfection with a pSG5-derived plasmid
T1 sequence (P10275 1-920 E710Y): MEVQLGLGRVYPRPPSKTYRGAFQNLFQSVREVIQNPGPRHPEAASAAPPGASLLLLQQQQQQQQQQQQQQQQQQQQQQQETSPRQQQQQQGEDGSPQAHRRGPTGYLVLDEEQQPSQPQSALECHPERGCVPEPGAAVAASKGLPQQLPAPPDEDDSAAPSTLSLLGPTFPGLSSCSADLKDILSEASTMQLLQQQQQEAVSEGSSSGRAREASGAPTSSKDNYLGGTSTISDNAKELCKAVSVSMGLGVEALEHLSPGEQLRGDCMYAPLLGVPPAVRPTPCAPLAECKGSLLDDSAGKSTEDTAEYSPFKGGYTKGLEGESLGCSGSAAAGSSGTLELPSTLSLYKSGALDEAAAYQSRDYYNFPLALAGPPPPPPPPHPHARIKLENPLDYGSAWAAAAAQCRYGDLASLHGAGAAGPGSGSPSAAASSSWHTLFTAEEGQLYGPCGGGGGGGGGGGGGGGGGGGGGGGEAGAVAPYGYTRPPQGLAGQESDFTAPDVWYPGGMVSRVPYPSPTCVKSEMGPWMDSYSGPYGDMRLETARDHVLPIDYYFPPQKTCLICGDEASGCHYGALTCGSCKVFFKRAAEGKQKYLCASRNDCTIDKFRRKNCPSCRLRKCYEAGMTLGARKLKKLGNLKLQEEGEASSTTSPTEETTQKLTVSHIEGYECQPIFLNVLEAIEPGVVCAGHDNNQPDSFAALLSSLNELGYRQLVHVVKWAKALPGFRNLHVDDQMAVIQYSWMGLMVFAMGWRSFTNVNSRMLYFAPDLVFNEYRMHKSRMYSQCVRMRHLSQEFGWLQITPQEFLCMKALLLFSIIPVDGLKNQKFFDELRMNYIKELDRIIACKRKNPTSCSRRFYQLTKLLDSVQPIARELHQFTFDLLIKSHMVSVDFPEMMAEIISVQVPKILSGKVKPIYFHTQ
The experiment can be described thus: Cell-based transactivation assay for human androgen receptor mutant E709Y.
Description: Cell-Based Transactivation Assay for Human Androgen Receptor Mutant E709Y
PC-3 cells (Kaighn et al., Invest. Urol. 17:16-23, 1979) were grown in 5% charcoal-stripped medium and seeded at a concentration of 10000 cells per well in a 96-well plate. They were transiently transfected with a pSG5-derived plasmid (#216201 from Stratagene, La Jolla, Calif., USA) coding for the human androgen receptor E709Y mutant (Georget et al., Molecular Endocrinology, 20(4): 724-734, 2006) and an MMTV-Luciferase reporter plasmid based on pGL4.14 14 (#E6691, Promega Corporation, Madison, Wis., USA). The compound to be tested was added at a concentration range varying from 1×10^−9 to 1×10^−6 M together with 1×10^−10 R1881. After 24 h incubation at 37° C. in a 5% CO2 atmosphere, 100 μl of Steady Glo Lysis and Detection reagent (Steady Glo Luciferase assay system E2550 from Promega Corporation. Madison, Wis., USA) were added. Antagonistic activity was determined by measuring Luciferase activity in a Victor 3 Luminometer (PerkinElmer, Waltham, Mass., USA) using the Steady Glo Luciferase Assay (E2550, Promega). IC50 values were calculated for anti-androgenic activity.

Experiment [2] addresses T2, human androgen receptor W741L mutant (Homo sapiens, UniProt P10275, W742L).
T2 construct: expressed in transfected cells; host or cells: PC-3 cells, transient transfection with a pSG5-derived plasmid
T2 sequence (P10275 1-920 W742L): T1 sequence (P10275 1-920 E710Y) with Y710E, W742L
The experiment can be described thus: Cell-based transactivation assay for human androgen receptor mutant W741L.

The target in experiment [3] is T3, wild-type human androgen receptor (Homo sapiens, UniProt P10275).
T3 construct: expressed in transfected cells
T3 sequence (P10275 1-920): T1 sequence (P10275 1-920 E710Y) with Y710E
Briefly: Cell-based transactivation assay for wild-type human androgen receptor (PC-3 cells, MMTV-luciferase reporter). A general note: Reporter assays use an easily measured gene product as a stand-in for the process of interest.

A further experiment deals with VCaP cells. Briefly: Proliferation assay with VCaP cells. It counts as cell-based. The conditions noted are these: Homo sapiens, 168 h, R1881 (1×10^−10) stimulated growth. The procedure: Proliferation Assay with VCaP Cells
VCaP cells ((Korenchuk et al., In Vivo 15: 163-168, 2001)) were seeded at 16 000 cells/well in 96-well plates in DMEM (F0445, Biochrom AG, Berlin, Germany) with phenol red supplemented with 10% charcoal-stripped serum. After 1 day, the cells were treated with R1881 (1×10^−10) and compound (day 0). Cell number was determined by Alamar Blue (DAL1100, Invitrogen, Life Technologies, Lohne, Germany) staining (2.5 h) at day 0 and day 7. Fluorescence was determined in Victor3 (Excitation 530 nm; emission 590 nm). Stimulated growth was defined as the signal measured at day 7 for cells treated only with R1881. Basal level was defined as the signal measured at day 7 for cells grown without R1881.

The next experiment concerns LNCaP cells. Briefly: Proliferation assay with LNCaP cells. Format: cell-based. The conditions noted are these: Homo sapiens, 168 h, R1881 (1×10^−10) stimulated growth, day 7, read-out: inhibition IC50 (LNCaP). The procedure: Proliferation Assay with LNCaP Cells
LNCaP cells (Horoszewicz et al., in “Models for Prostate Cancer” (ed. G. P. Murphy), Alan R. Liss, New York 1981, p. 115-132; Horoszewicz et al., Cancer Res. 43:1809-1818, 1983) were seeded at 2000 cells/well in 96-well plates in RPMI (F1235, Biochrom AG, Berlin, Germany) without phenol red supplemented with 5% charcoal-stripped serum. After 3 days, the cells were treated with R1881) (1×10^−10) and compound (day 0). Cell number was determined by Alamar Blue (DAL1100, Invitrogen, Life Technologies, Lohne, Germany) staining (2.5 h) at day 0 and day 7. Fluorescence was determined in Victor3 (Excitation 530 nm; emission 590 nm). Stimulated growth was defined as the signal measured at day 7 for cells treated only with R1881. Basal level was defined as the signal measured at day 7 for cells grown without R1881.

Setting [4] is: day 7, read-out: Antiproliferative activity VCaP IC50.
The mark [5] stands for this setting: day 7, read-out: inhibition IC50 (VCaP).

Substitutions are numbered along the chain they refer to. Read-outs that look alike come from different tables or passages of the source. Some results are limits rather than exact numbers.

For `COc1ccc(CN2C(=S)N(c3ccc(C#N)c(C(F)(F)F)c3)C(=O)C2(C)C)cc1` [Comparative data^4], the half-maximal inhibitory concentration (IC50) in experiment [1] stood at 80.2 nM; in experiment [2], 379 nM; with VCaP cells (setting [4]) it was 860 nM. This compound also showed an EC50 in experiment [3] of 6810 nM.
Take `CC1(C)C(=O)N(c2ccc(C#N)c(C(F)(F)F)c2)C(=S)N1Cc1ccc(OCCN2CCOCC2)nc1` [Example 3, 4-[4,4-Dimethyl-3-({6-[2-(morpholin-4-yl)ethoxy]pyridin-3-yl}methyl)-5-oxo-2-thioxoimidazolidin-1-yl]-2-(trifluoromethyl)benzonitrile]: the IC50 in experiment [1] is 79.5 nM; in the experiment with LNCaP cells it was 127 nM; in experiment [2], 118 nM; with VCaP cells (setting [4]), 176 nM. In addition, in experiment [3], the concentration giving a half-maximal response (EC50) is over 10000 nM.
Turning to `CC1(C)C(=O)N(c2ccc(C#N)c(C(F)(F)F)c2)C(=S)N1Cc1ccc(OC2CCOCC2)nc1` [Example 5, 4-(4,4-Dimethyl-5-oxo-3-{[6-(tetrahydro-2H-pyran-4-yloxy)pyridin-3-yl]methyl}-2-thioxoimidazolidin-1-yl)-2-(trifluoromethyl)benzonitrile], the IC50 in experiment [1] stood at 44.8 nM; in the experiment with LNCaP cells it was 200 nM; in experiment [2], 49.7 nM. The EC50 in experiment [3] was over 10000 nM.
Take `CC1(C)C(=O)N(c2ccc(C#N)c(C(F)(F)F)c2)C(=S)N1Cc1cnc(N2CCOCC2)nc1N` [Example 6, 4-(3-{[4-Amino-2-(morpholin-4-yl)pyrimidin-5-yl]methyl}-4,4-dimethyl-5-oxo-2-thioxoimidazolidin-1-yl)-2-(trifluoromethyl)benzonitrile]: the half-maximal inhibitory concentration (IC50) stood at 19.3 nM in experiment [1] and 92.8 nM in experiment [2]. A half-maximal effect in experiment [3] (EC50) was put at 5000 nM.
As to `CC1CN(c2ccc(CN3C(=S)N(c4ccc(C#N)c(C(F)(F)F)c4)C(=O)C3(C)C)cn2)CCO1` (stereo not shown) [Example 7, 4-(4,4-Dimethyl-3-{[6-(2-methylmorpholin-4-yl)pyridin-3-yl]methyl}-5-oxo-2-thioxoimidazolidin-1-yl)-2-(trifluoromethyl)benzonitrile], the half-inhibitory concentration (IC50) in experiment [1] worked out at 22.6 nM; with LNCaP cells it was 118 nM; in experiment [2], 49.1 nM; in the experiment on VCaP cells (setting [4]), 106 nM; in the experiment with VCaP cells (setting [5]), 106 nM. In experiment [3], the EC50 is over 10000 nM.
For the compound `COc1ccc(CN2C(=S)N(c3ccc(C#N)c(C(F)(F)F)c3)C(=O)C2(C)C)cn1` [Example 8, 4-{3-[(6-Methoxypyridin-3-yl)methyl]-4,4-dimethyl-5-oxo-2-thioxoimidazolidin-1-yl}-2-(trifluoromethyl)benzonitrile], the IC50 in experiment [1] was determined as 9.18 nM; in the experiment with LNCaP cells it was 120 nM; in experiment [2] it was 49.2 nM; in the experiment on VCaP cells (setting [4]), 92.5 nM; in the experiment on VCaP cells (setting [5]), 92 nM. Further, a half-maximal response in experiment [3] (EC50) required 8860 nM.
As for `Cc1nccn1-c1ccc(CN2C(=S)N(c3ccc(C#N)c(C(F)(F)F)c3)C(=O)C2(C)C)cn1` [Example 15, 4-(4,4-Dimethyl-3-{[6-(2-methyl-1H-imidazol-1-yl)pyridin-3-yl]methyl}-5-oxo-2-thioxoimidazolidin-1-yl)-2-(trifluoromethyl)benzonitrile], the IC50 amounted to 29.9 nM in experiment [1], 116 nM with LNCaP cells, 13.2 nM in experiment [2] and 253 nM in the experiment on VCaP cells (setting [4]). This compound also registered a concentration for a half-maximal effect (EC50) in experiment [3] of over 10000 nM.
With `CC1(C)CC(=O)N(c2ccc(CN3C(=S)N(c4ccc(C#N)c(C(F)(F)F)c4)C(=O)C3(C)C)cn2)C1` [Example 16, 4-(3-{[6-(4,4-Dimethyl-2-oxopyrrolidin-1-yl)pyridin-3-yl]methyl}-4,4-dimethyl-5-oxo-2-thioxoimidazolidin-1-yl)-2-(trifluoromethyl)benzonitrile], the 50% inhibitory concentration (IC50) in experiment [1] is 143 nM; in the experiment with LNCaP cells it was 121 nM; in experiment [2], 78.5 nM. The concentration giving a half-maximal response (EC50) in experiment [3] was over 10000 nM.
On to `CN=S1(=O)CCN(c2ccc(CN3C(=S)N(c4ccc(C#N)c(C(F)(F)F)c4)C(=O)C3(C)C)cn2)CC1` [Example 22, 4-[4,4-Dimethyl-3-({6-[1-(methylimino)-1-oxido-1λ^6-thiomorpholin-4-yl]pyridin-3-yl}methyl)-5-oxo-2-thioxoimidazolidin-1-yl]-2-(trifluoromethyl)benzonitrile], for which the values for the IC50 (in the experiment on LNCaP cells; in experiment [2]) were 135 nM and 57.4 nM, respectively. In experiment [3], this compound registered a half-maximal effective concentration (EC50) of over 10000 nM.
